# Test results as given in patent US11931335B2, “Enhancing autophagy or increasing longevity by administration of urolithins or precursors thereof” (Amazentis SA, priority 2012, dated 2024).
# “Also recorded” adds a separate entry of the source. Where two headings read alike, the source gives them in different places.
# Tests used:
# [1] = system: C. elegans wild-type Bristol N2; conditions: Genotype: N2, fed live E. coli (OP50), cited from earlier work
# [2] = system: C. elegans wild-type Bristol N2; assay: Lifespan of wild-type C. elegans; type: in vivo; conditions: concentration of 50 µM; exposed from eggs; FIG. 4
# Experimental: C. elegans strains were cultured at 20° C. on nematode growth media (NGM) agar plates seeded with E. coli strain OP50. Strain used was wild-type Bristol N2 provided by the Caenorhabditis Genetics Center (University of Minnesota). All Compounds were dissolved in DMSO. Animals were exposed to compounds from eggs on plates seeded with live OP50 bacteria. Control plates were prepared with the corresponding concentrations of DMSO (0.1%). For lifespan tests, worms were observed using a Nikon SMZ1500 stereomicroscope (Nikon, Melville, NY, USA). […] After 3 days (corresponding to day 0), newly developed 60 to 100 L4 worms were used per condition, scored and transferred to fresh plates every 3 days starting from day 1 (young adult worms). All lifespan experiments were performed at 20° C.
# Lifespan assays were performed with (A) wild-type (N2), (B) sir-2.1(ok434) mutant, (C) aak-2(ok524), (D) daf-16(mu86), (E) eat-2(ad465) and (F) daf-2(e1370) mutant strains of C. elegans maintained during their full life on plates supplemented with either 50 μM of urolithin A or with a control treatment and seeded with OP50 bacteria. Control plates without urolithin A contained an equivalent concentration of DMSO. Worm lifespan assays were performed at 20° C.
# [3] = system: undifferentiated C2C12 mouse myoblasts; assay: LC3B flow cytometry in C2C12 myoblasts; type: cell-based; conditions: 100 μM, 24 hrs, FIG. 26
# Experimental: To determine the ability of urolithin A to induce autophagy in mouse muscle cells, undifferentiated C2C12 mouse myoblasts were seeded in T25 flasks and incubated overnight. Cells were incubated in 5% CO2 at 37° C. These cells were treated with one of the urolithins-urolithin A (UA), urolithin B (UB), urolithin C (UC) or urolithin D (UD)—dissolved in a 0.1% solution of DMSO for 24 hours. In one experiment UA, UB, UC and UD were dosed at a concentration of 100 μM for C2C12 myoblast treatment. In a separate study, C2C12 myoblasts were incubated at increasing concentrations of UA (10 μM, 50 μM and 100 μM). For each experiment a control culture was treated with 0.1% DMSO for the same period and served as the untreated control. In the final 30 minutes of incubation, lysosome degradation inhibitor was added to the culture. The cells were then washed with phosphate buffer solution and then treated with a 1% solution of trypsin enzyme to remove the adhesive cells from the cell culture dishes. The cells were then treated with EMD Millipore selective permeabilization reagent to permeabilize the cells so as to make the internal cellular proteins accessible to antibody treatment. Cells were then incubated with antibody to LC3B according to kit protocol (EMD Millipore FlowCellect™ Autophagy LC3 Antibody-based Assay Kit (Cat no. FCCH100171)). The cells were then washed and resuspended in the kit assay buffer. The resulting cells were then run through a flow cytometer and LC3B-FITC fluorescence was quantified to measure the level of LC3B in C2C12 cells for the various treatments. When cells undergo autophagy their intracellular levels of LC3-II increase which is detected by this method. This autophagy can be detected by fluorescent antibody labeling of LC3B, which can be measured quantitatively using flow cytometry. An increase in cellular autophagy is reflected by an increasing signal in the histogram of LC3B FITC.
# C. elegans [4] = assay: Pharyngeal pumping in C. elegans; type: in vivo; conditions: day 14 (aged worms); 50 μM; FIG. 11
# Experimental: To examine the effect of urolithins on muscle function, pharyngeal pumping was examined in C. elegans worms at day 7 and day 14. Worms were observed using a Nikon SMZ1500 stereomicroscope (Nikon, Melville, NY, USA). Ten L4 worms were transferred on plates containing NGM medium with vehicle (DMSO 0.1%, final concentration) or the compound of interest (urolithin A (UA), urolithin B (UB), urolithin C (UC), urolithin D (UD)) dissolved in DMSO (final concentration 50 μM) and seeded with E. coli RNAi clones as indicated. After 3 days (corresponding to day 0), newly developed 60 to 100 L4 worms were used per condition, scored and transferred to fresh plates every 3 days starting from day 1 (young adult worms). Experiments were performed at 20° C.
# The pharyngeal pumping rates at day 7 and 14 were measured for 10 worms by transferring single worms to an unseeded plate and scoring for pharyngeal pumping under a dissecting microscope for 30 seconds. The pharyngeal pumping rates were then computed by extrapolating the pumping made by worms during this 30 second period.
# [5] = system: C. elegans wild type (N2, Bristol); assay: Mobility tracking of C. elegans during aging; type: in vivo; conditions: days 1, 3, 5 and 8 of adulthood; 50 μM; FIG. 12
# Experimental: To examine the effect of urolithins on muscle activity during aging, C. elegans mobility was examined over time. Synchronized populations of wild-type nematodes were prepared by standard methods and cultivated at 20° C. on NGM agar containing E. Coli (OP50) with or without test compounds (ellagic acid (EA), urolithins A (UA), and B (UB)). At Day 0, five plates were prepared, each containing 10 young adult worms. Worms were assayed for mobility at different ages, day 1, 3, 5 and 8 of adulthood. The wild type (N2, Bristol) worm strain was employed for these studies.
# For C. elegans movement tracking, 45 seconds of video were recorded using a Nikon DS-L2/DS-Fi1 camera and controller setup, attached to both a computer and a standard bright field microscope, tracking an entire plate of 10 worms, with 5 plates per condition. The movement of worms during this time was calculated using an adapted version of the freely-available software Parallel Worm Tracker for MATLAB. The total movement over the 45 second tracking was averaged across all worms for each condition. This experiment was repeated twice with between 40 and 70 worms per condition.
# C. elegans [6] = assay: Time-lapse motility of C. elegans; type: in vivo; conditions: 50 μM; days 8, 14 and 16; FIG. 13
# Excerpt: Briefly, worms were observed using a Nikon SMZ1500 stereomicroscope (Nikon, Melville, NY, USA). […] Experiments were repeated three times.
smiles,measurement,setting,value
"CO[C@H]1C[C@@H]2CC[C@@H](C)[C@@](O)(O2)C(=O)C(=O)N2CCCC[C@H]2C(=O)O[C@H]([C@H](C)C[C@@H]2CC[C@@H](O)[C@H](OC)C2)CC(=O)[C@H](C)/C=C(\C)[C@@H](O)[C@@H](OC)C(=O)[C@H](C)C[C@H](C)/C=C/C=C/C=C/1C [Rapamycin, (3S,6R,7E,9R,10R,12R,14S,15E,17E,19E,21S,23S,26R,27R,34aS)-9,10,12,13,14,21,22,23,24,25,26,27,32,33,34,34a-hexadecahydro-9,27-dihydroxy-3-[(1R)-2-[(1S,3R,4R)-4-hydroxy-3-methoxycyclohexyl]-1-methylethyl]-10,21-dimethoxy-6,8,12,14,20,26-hexamethyl-23,27-epoxy-3H-pyrido[2,1-c][1, 4]-oxaazacyclohentriacontine-1,5,11,28,29(4H,6H,31H)-pentone]",Mean Life Extension (%),[1]; dose 100 μM,19%
"O=c1oc2cc(O)ccc2c2cc(O)c(O)cc12 [Urolithin C, urolithin C]",effect on lifespan in C. elegans,[2],extended the lifespan
same,LC3B signal (shift of the histogram),[3]; listed as UC,increasing signal of LC3B; also recorded: increase in autophagy
"NCCCCNCCCN [Spermidine, spermidine]",Mean Life Extension (%),[1]; dose 200 μM,15%
"O=c1oc2cc(O)ccc2c2ccccc12 [Urolithin B, urolithin B]",effect on lifespan in C. elegans,[2],extended the lifespan
same,pharyngeal pumping (muscle function),C. elegans [4],decreases the age related decline in muscle activity
same,age related mobility decline,[5],marked ability to reduce muscle function decline
same,motility (time-lapse traces),C. elegans [6],strongest effect
same,LC3B signal (shift of the histogram),[3]; listed as UB,increasing signal of LC3B; also recorded: increase in autophagy
"O=c1oc2c(O)c(O)ccc2c2cc(O)c(O)cc12 [Urolithin D, urolithin D]",effect on lifespan in C. elegans,[2],extended the lifespan
same,LC3B signal (shift of the histogram),[3]; listed as UD,increasing signal of LC3B; also recorded: increase in autophagy
"CN(C)C(=N)NC(=N)N [Metformin, N,N-Dimethylimidodicarbonimidic diamide]",Mean Life Extension (%),[1]; dose 50 μM,27%
"Oc1ccc(/C=C/c2cc(O)cc(O)c2)cc1 [Resveratrol, 3,5,4′-trihydroxy-trans-stilbene]",Mean Life Extension (%),[1]; dose 100 μM,6.2-12.6%
same,Mean Life Extension (%),"[1]; dose 100 μM, listed as resveratrol",12.6%
"O=c1oc2c(O)c(O)cc3c(=O)oc4c(O)c(O)cc1c4c23 [Ellagic acid, ellagic acid]",effect on lifespan in C. elegans,[2],no effects
same,age related mobility decline,[5],no effect
